Assay [1] deals with Staphylococcus aureus ATCC 6538P. The experiment in a line: Respiration assay (Example 1), electrochemical ferricyanide/DCIP mediator consumption. In kind it is cell-based. Particulars: for Slope data: n=2. How it is done:
(§1) The ferricyanide solution is added so that the final ferricyanide concentrations is 50 mM.
(§2) The bacterial suspensions were adjusted to a MacFarland Standard of 5.0 (5.0×10sup.8 cfu/mL) or an optical density of 1.2 measured at 625 nm and cell growth was stopped by cooling the bacterial suspension for a minimum of 15 min in an ice-bath.

The test system of assay [2] is E. faecalis. The description is as above. In kind it is cell-based, Enterococcus faecalis. To be noted: n=2. How it is done:
as §1, §2

The subject of a further assay is P. vulgaris ATCC6380. Put plainly: Relative respiratory activity with 22 effectors (Example 3). In kind it is cell-based, Proteus vulgaris. To be noted: 5 μM DCIP, no effector = 100%, n = 20. From the text:
(§3) In this example, each microorganism is subjected to 22 different effector compounds in addition to control measurements. […] For each microorganism, duplicate measurements were made of 22 different effector compounds. In addition, duplicate measurements were made a control test containing no effector compound. One additional measurement was made of a control solution containing the microorganism with ferricyanide but without effector or DCIP.
(§4) In this example, each normalized data set containing duplicate measurements for each of 22 effector compounds is referenced to the duplicate internal controls to allow batch-to-batch comparison. The obtained signals of charge per unit electrode area for the duplicate control measurements are averaged and set at 100% respiratory cycle activity. […] The data set used to generate pattern recognition plots consists of 5 replicate batches (each batch containing duplicate measurements for each of 22 effector compounds) for each cell culture (10 strains). This is used to generate a 50 (columns)×22 (rows) matrix. The matrix is imported into MATLAB (Version 6.0). Factor analysis is performed using the MATLAB Chemometric Toolbox (Version 2.3) and involves the generation of reduced eigenvectors to determine the optimal number of factors, examination of the resulting residuals plots for randomness, and the generation of scores for the first four principle components.

In assay [3] the test system is E. faecalis. Described as above. To be noted: 5 μM DCIP, no effector = 100%, n = 20. It counts as cell-based, Enterococcus faecalis.
Text: as §3, §4

In a further assay the test system is E. aerogenes ATCC13048e. Described as above. In kind it is cell-based, Enterobacter aerogenes. To be noted: 5 μM DCIP, no effector = 100%, n = 26.
Text: as §3, §4

A further assay relates to E. coli B. The assay is described as above. It counts as cell-based.
Text: as §3, §4

Another assay relates to E. coli HB101. The description is as above. It counts as cell-based. Particulars: 5 μM DCIP, no effector = 100%, n = 18.
Text: as §3, §4

For another assay, the system named is E. coli JM105. The assay is described as above. It counts as cell-based. To be noted: 5 μM DCIP, no effector = 100%, n = 10.
Text: as §3, §4

In another assay the test system is E. coli Neotype. Described as above. In kind it is cell-based. Particulars: 5 μM DCIP, no effector = 100%, n = 26.
Text: as §3, §4

Another assay deals with P. aeruginosa. The description is as above. Particulars: 5 μM DCIP, no effector = 100%, n = 18. It counts as cell-based, Pseudomonas aeruginosa.
Text: as §3, §4

Another assay concerns S. aureus ATCC6538P. The assay is described as above. Particulars: 5 μM DCIP, no effector = 100%, n = 20. In kind it is cell-based, Staphylococcus aureus.
Text: as §3, §4

In another assay the test system is S. cerevisiae. The description is as above. In kind it is cell-based, Saccharomyces cerevisiae. Particulars: 5 μM DCIP, no effector = 100%, n = 10.
Text: as §3, §4

A further assay has as its system Gram-positive bacteria. To be noted: effector 1 mM instead of 1 mM glucose, relative to + DCIP.
The test system of assay [4] is Enterobacter aerogenes ATCC 13048e. The experiment in a line: Respiration assay (Example 1), electrochemical ferricyanide/DCIP mediator consumption. In kind it is cell-based. Particulars: effector 10 mM. How it is done:
as §1, §2

Protocol for Gram-positive bacteria: The following steps are used for each test: (1) preheating for a fixed time (4 min) and a fixed temperature (35° C.) a 150 μL aliquot of buffer containing 1 mM glucose (glc) with or without 5 μM DCIP; (2) this is followed by the addition of 50 μL of the bacterial suspension to the sample for a fixed time (10 min) and at a fixed temperature (35° C.); (3) this is followed by the addition of the mediator (50 μL of 0.4 M potassium ferricyanide) for a fixed time (10 min) and at a fixed temperature (35° C.); and (4) measurement of current at a fixed voltage difference (100 mV) between two platinum electrodes for a fixed time (120 sec) at a fixed temperature (35° C.). The final ferricyanide concentration in the sample prior to reaction with the microorganism is 40 mM.
In this configuration the assay uses two platinum electrodes each having a surface area of approximately 0.03 cm^2. The measured current depends on the concentration of the least-concentrated species of the redox-couple in solution. […] The magnitude of the measured current indicates the quantity of the reduced mediator present in the assay solution. The measured current is integrated over time to produce a plot of total charge against time. The change in total charge is measured between 30 and 120 seconds after the potential is applied. […]

As for `O=C[C@@H](O)[C@@H](O)[C@H](O)[C@H](O)CO` [D-mannose], the Slope data worked out at 16.6 μC/min in [1] (substrate 1 mM); 14.0 μC/min in assay [1] (substrate 10 mM); 15.1 μC/min in assay [1] (substrate 50 mM); 17.8 μC/min in the assay on E. faecalis [2] (substrate 1 mM); 19.6 μC/min with E. faecalis [2] (substrate 10 mM); 14.5 μC/min with E. faecalis [2] (substrate 50 mM). Moreover, the activity at 20000 µM was 250% with P. vulgaris ATCC6380 (Proteus vulgaris, ATCC6380, effector 20 mM); 654% with E. faecalis [3] (Enterococcus faecalis, effector 20 mM); 296% in the assay with E. aerogenes ATCC13048e (Klebsiella aerogenes, ATCC13048E, effector 20 mM); 152% with E. coli B (Escherichia coli, effector 20 mM, 5 μM DCIP, no effector = 100%, n = 10); 222% with E. coli HB101 (Escherichia coli, HB101, effector 20 mM); 212% with E. coli JM105 (Escherichia coli, JM105, effector 20 mM). The activity at 20000 µM in the assay on E. coli Neotype (Escherichia coli, effector 20 mM) was 139%; in the assay on P. aeruginosa (Pseudomonas aeruginosa, effector 20 mM), 108%; with S. aureus ATCC6538P (Staphylococcus aureus, ATCC6538P, effector 20 mM), 262%; in the assay on S. cerevisiae (Saccharomyces cerevisiae, effector 20 mM) it was 125%. Also, the “respiratory signals in the absence of 5 μM DCIP” value in the assay with Gram-positive bacteria is reported as “below 60%”.

Take `O=C(O)CCC(=O)O` [Succinate]: the relative %-respiratory activity was 520% in the assay with P. vulgaris ATCC6380 (effector 3 mM); 87% in the assay on E. faecalis [3] (effector 3 mM); 187% with E. aerogenes ATCC13048e (effector 3 mM); 134% in the assay with E. coli B; 172% with E. coli HB101 (effector 3 mM); 287% in the assay with E. coli JM105 (effector 3 mM). For the same compound, the relative %-respiratory activity with E. coli Neotype (effector 3 mM) came to 127%; in the assay with P. aeruginosa (effector 3 mM), 102%; in the assay with S. aureus ATCC6538P (effector 3 mM), 167%; with S. cerevisiae (effector 3 mM), 108%. Also, the “respiratory signals in the absence of 5 μM DCIP” value in the assay on Gram-positive bacteria is listed as less than 80%.

Take `CC(=O)C(=O)O` [Pyruvic acid]: the slope in [4] (5 μM DCIP, 50 mM ferricyanide, 35° C.) is 23.4 μC/min; in [1] (effector 10 mM, 5 μM DCIP, 50 mM ferricyanide, 35° C.), 14.8 μC/min. Besides, the normalized slope in assay [4] (area normalized) worked out at 13.7 μC/min*mm^2; in [1] (effector 10 mM, area normalized), 8.7 μC/min*mm^2. The relative activity in assay [4] (buffer set as 100%) stood at 143%; in assay [1] (effector 10 mM, buffer set as 100%) it was 164%. Moreover, the activity at 10000 µM in the assay with P. vulgaris ATCC6380 (Proteus vulgaris, ATCC6380, effector 10 mM, read-out: relative %-respiratory activity) is 344%; with E. faecalis [3] (Enterococcus faecalis, effector 10 mM, read-out: relative %-respiratory activity) it was 136%; in the assay on E. aerogenes ATCC13048e (Klebsiella aerogenes, ATCC13048E, effector 10 mM, read-out: relative %-respiratory activity) it was 209%; in the assay with E. coli B (Escherichia coli, effector 10 mM, 5 μM DCIP, no effector = 100%, n = 10, read-out: relative %-respiratory activity), 120%; in the assay on E. coli HB101 (Escherichia coli, HB101, effector 10 mM, read-out: relative %-respiratory activity), 169%; in the assay with E. coli JM105 (Escherichia coli, JM105, effector 10 mM, read-out: relative %-respiratory activity), 249%. The activity at 10000 µM in the assay with E. coli Neotype (Escherichia coli, effector 10 mM, read-out: relative %-respiratory activity) is 126%; in the assay with P. aeruginosa (Pseudomonas aeruginosa, effector 10 mM, read-out: relative %-respiratory activity) it was 125%; with S. aureus ATCC6538P (Staphylococcus aureus, ATCC6538P, effector 10 mM, read-out: relative %-respiratory activity), 313%; in the assay on S. cerevisiae (Saccharomyces cerevisiae, effector 10 mM, read-out: relative %-respiratory activity), 109%.
